Earlier results as cited in patent US20230405025A1, “CANNABINOID-CONTAINING COMPOSITIONS AND USE FOR TREATING AND PREVENTING DISEASES” (priority 2020, published 2023).

System: presbyopic patient

CC[C@@H]1C(=O)OC[C@@H]1Cc1cncn1C [Pilocarpine, pilocarpine]
Tolerability (concentrations above 0.5%, side effects red eyes, ocular pain, brow ache, headache): not tolerated | Distance vision (concentrations effective enough to improve reading ability, eye rendered myopic (Gilmartin et al., 1995)): significant decrease in the eye's distance vision | Effect on accommodation of the eye (topical concentrations below 0.5%): minimal effect in the accommodation of the eye
